The record followed here is patent publication US20260137698A1, “CYCLIN-DEPENDENT KINASE 7 INHIBITORS” (JOINT STOCK COMPANY «BIOCAD», priority 2022, published 2026).

Series [1] can be described thus: Blood-brain barrier permeability: PK in mice brain homogenate following oral administration. The conditions noted are these: male, CD-1, mouse, dose 10 mg/kg; for Kp: brain homogenate / plasma, mice, read-out: AUCbrain/AUCplasma; for AUC(0-t) / Cmax / Tmax / half-life: mice brain homogenate; for half-life: read-out: t½ (converted). Type of series: in vivo, CD-1 mice. The protocol: The ability of substances to penetrate the blood-brain barrier and enter the central nervous system (mouse brain) was evaluated by the ratio of their areas under pharmacokinetic curves in […] and blood plasma following oral administration, characterizing tissue bioavailability to the […], and expressed as the AUCbrain/AUCplasma coefficient.
Pharmacokinetic studies of the compounds were carried out on CD-1 mice, males, aged about 8 weeks, weighing 16-29 g. Animals were subjected a single oral (PO) administration (intragastrically) at a dose of 10 mg/kg in a formulation in the form of a 0.2% solution of hydroxypropyl methylcellulose (HPMC) in a 5% aqueous solution of glucose.
21 animals were used for each substance. All mice were weighed and randomized before dosing.
3 animals were used for each time point. Biomaterials were collected from each animal at one time point. At least 12 h before the start of the experiment, the animals were deprived of food while maintaining free access to water. Blood and brain samples were collected 0.5, 2, 4, 6, 8, 12 and 16 h after administration of the substance.
All manipulations were carried out analogously to Example 54.
Perfusion of mice brains was carried out with saline solution via the vascular system. To this end, the chest was opened, the right atrium was incised with microsurgical scissors, and saline cooled to 4° C. was administered using a 10-ml syringe into the left ventricle until the liver turned white. After washing, the skull was opened and the brain removed, it was weighed and transferred to labeled 5 ml tubes.
A 4-fold volume of water was added to the brain suspension and homogenized using a homogenizer (Omni Bead Ruptor 24) 2 times for 45 seconds. Analogously, the intact mice brain homogenate was prepared, which was then used to prepare calibration samples and QC samples. The calibration curve was generated by analyzing brain homogenate samples with supplementations of known amounts of the standard of the compound being determined.
Samples were precipitated with cooled acetonitrile at 1:4 ratio, containing the internal standard tolbutamide (Sigma, T0891) at a concentration of 50 ng/ml. Samples were stirred on a vortex mixer (G560E, Scientific Industries) for 10 seconds and kept at 4° C. for 15 minutes to precipitate proteins, then centrifuged (5417R centrifuge, Eppendorf) for 10 minutes at 1500 g. […] of supernatants were collected and transferred to corresponding wells of a 96-well plate for HPLC-MS/MS analysis. Quantitative determination of test compounds in brain homogenates was carried out analogously to the procedure described in Example 54. Lower limit of quantitative determination of test compounds in brain homogenate was 0.3 ng/ml.
Pharmacokinetic analysis of data was performed analogously to the procedure described in Example 54.
In addition to main PK parameters, the ratio of concentration in the brain and plasma at the studied time points (AUCbrain/AUCplasma) was calculated to assess bioavailability in the brain (permeability through the blood-brain barrier).

The test system of series [2] is MDA-MB-468 (triple negative breast cancer). As to the kind of experiment: BrdU incorporation into DNA in MDA-MB-468 cells. Type of series: cell-based. As to conditions: Homo sapiens, mean of multiple measurements. From the text:
Upon adding bromodeoxyuridine (BrdU) to dividing cells, Thymidine is replaced by its analogue, BrdU, and BrdU is incorporated into DNA. Thus, BrdU incorporated into DNA characterizes the intensity of DNA replication and ongoing S phase of the cell cycle. Reduced incorporation of bromodeoxyuridine into DNA under the action of the compounds characterizes a slowdown in the cell cycle and DNA replication.
The ability of the CDK7 inhibitors according to the present invention to inhibit the incorporation of BrdU into DNA was evaluated in a cell test on continuous cell cultures: MDA-MB-468 (triple negative breast cancer, ATCC® HTB-132™) using a BrdU detection kit (Roche, order no. 11 669 915 001)). The cells were grown in DMEM medium (PanEco, order no. C330π). The basal growth medium was enriched with L-glutamine at a concentration of 2 mM (PanEco, order no. Φ032) and 10% fetal bovine serum (Gibco, order no. 16140-071). MDA-MB-468 adherent cells were detached from plastic with a solution of trypsin-EDTA (PanEco, order no. Π039π), the solution was then inactivated by a DMEM complete medium, centrifuged at 1000 RPM (Eppendorf, 5804 R), a suspension of cells was prepared in a DMEM complete medium, introduced into 96-well culture plates (Corning Inc, order no. 3599) at 4×10^3 cells in 75 μl of medium per well. Test compounds were dissolved in DMSO and diluted with a DMEM complete medium to a final concentration ranging from 0.5 μM to 2 μM. Serum-free growth medium was removed from plate wells, and solutions comprising diluted compounds in the volume of 100 μl in basal growth medium were added. Candidates were introduced into the plate wells with cells in triplicates (the final concentration of DMSO was no more than 1%) and incubated at 37° C. in an incubator with 5% CO2 for 24 hours. Following incubation, 10 μl of solution of BrdU at a concentration of 10 μM was added to wells, the contents of the plates were agitated on an orbital shaker (Biosan, Latvia), and incubated for additional 72 hours at 37° C. in an incubator with 5% CO2. Incorporated BrdU was then detected according to the guidelines of the kit manufacturer. […] 100 μl of substrate solution was introduced into each analyzed well and incubated for 3 minutes at room temperature (+15-25° C.) on an orbital shaker (Biosan, Latvia) and for another 5-7 minutes without stirring.
The amount of incorporated BrdU was detected on the Infinite M200Pro microplate spectrophotometer (Tecan Group Ltd, Switzerland) by measuring the luminescent signal. IC50 value was calculated using the Magellan software (Tecan Group Ltd, Switzerland) by approximating experimental points by four-parameter model with the optimization by Levenberg-Marquardt.
(In general: Uptake of a labelled nucleoside into DNA is a usual measure of proliferation.)

With `CC(C)N1CCCc2c(-c3nc(N[C@H]4CCC5(CC5)NC4)ncc3C(F)(F)F)c[nH]c2C1=O` [CDK7_1277, 3-(2-{[(6S)-4-azaspiro[2.5]octan-6-yl]amino}-5-(trifluoromethyl)py-rimidin-4-yl)-7-(propan-2-yl)-1H,4H,5H,6H,7H, 8H-pyrrolo[2,3-c]azepin-8-one], in series [1], the Kp stood at 0.302; the area under the curve AUC(0-t) (usually exposure summed from dosing to a finite time, without extrapolation to infinity) was found to be 1750 ng·h/mL; the concentration peaked (Cmax) at 226 ng/mL; the time of peak concentration (Tmax) (in general, the time at which the peak concentration occurs) was 2 h. Besides, the half-life in series [1] was 2.76 h.
Turning to `CN1CCCc2c(-c3nc(N[C@H]4CCC(C)(C)NC4)ncc3C(F)(F)F)c[nH]c2C1=O` [CDK7_1187, 3-(2-{[(3S)-6,6-dimethylpiperidin-3-yl]amino}-5-(trifluoromethyl)py-rimidin-4-yl)-7-methyl-1H,4H,5H,6H,7H, 8H-pyrrolo[2,3-c]azepin-8-one], the IC50 (commonly the concentration that gives 50% inhibition) in series [2] turned out to be 14 nM. That is a double-digit nanomolar value.
Take `O=C1c2[nH]cc(-c3nc(N[C@H]4CCC5(CC5)NC4)ncc3C(F)(F)F)c2CCCN1C1CC1` [CDK7_1276, 3-(2-{[(6S)-4-azaspiro[2.5]octan-6-yl]amino}-5-(trifluoromethyl)py-rimidin-4-yl)-7-cyclopropyl-1H,4H,5H,6H,7H, 8H-pyrrolo[2,3-c]azepin-8-one]: the IC50 in series [2] stood at 2 nM. Further, in series [1], the Kp is 0.243; the area under the curve AUC(0-t) stood at 1940 ng·h/mL; the maximum concentration (Cmax) (in general, the peak of the concentration-time curve) was 335 ng/mL; the Tmax was 0.5 h. Further, in series [1], the half-life is 1.99 h.
Consider `CC1(C)CC[C@H](Nc2ncc(C(F)(F)F)c(-c3c[nH]c4c3CCCN(C3CC3)C4=O)n2)CN1` [CDK7_1225, 7-cyclopropyl-3-(2-{[(3S)-6,6-dimethylpiperidin-3-yl]amino}-5-(trifluoromethyl)py-rimidin-4-yl)-1H,4H,5H,6H,7H, 8H-pyrrolo[2,3-c]azepin-8-one], for which half-maximal inhibition in series [2] (IC50) was put at 24 nM. Further, in series [1], the Kp is 0.165, the exposure AUC(0-t) amounted to 855 ng·h/mL, the maximum concentration (Cmax) came out at 93.8 ng/mL and the time to peak (Tmax) came out at 6 h. The half-life in series [1] is 2.33 h.
In series [2], `CC(C)N1CCCc2c(-c3nc(N[C@H]4CCC(C)(C)NC4)ncc3C(F)(F)F)c[nH]c2C1=O` [CDK7_1229, 3-(2-{[(3S)-6,6-dimethylpiperidin-3-yl]amino}-5-(trifluoromethyl)py-rimidin-4-yl)-7-(propan-2-yl)-1H,4H,5H,6H,7H, 8H-pyrrolo[2,3-c]azepin-8-one] returned an IC50 of 28 nM. Further, in series [1], the Kp is 0.182, the AUC(0-t) worked out at 909 ng·h/mL, the concentration peaked (Cmax) at 136 ng/mL and the time of peak concentration (Tmax) came out at 0.5 h. The half-life in series [1] was 2.25 h.
